The values that follow come from patent publication US4736067A, “New dimethyl derivatives of 3-nitro-4-aminoaniline, process for their preparation and their use for dyeing keratinic fibers” (L'Oreal, priority 1983, dated 1988).

A short description of data set [1]: Stability / storage of the nitro colorant in (oxidation) dyeing composition or reducing alkaline medium. The data set is classed as physicochemical. As to conditions: oxidation dye composition with ammonia and sodium bisulphite (Examples 26, 27).

With `Cc1cc(N)c([N+](=O)[O-])c(C)c1N` [2,6-dimethyl-3-nitroparaphenylenediamine], the “stability of the nitro colorant in the liquid composition” value in data set [1] is “preserved”. Also, in the data set “Harmlessness / toxicity”, the harmlessness entry was “particularly harmless”.
`CNc1c(C)cc(N)c([N+](=O)[O-])c1C` [4-amino-2,6-dimethyl-3-nitro-N-methylaniline]: the harmlessness entry in the data set “Harmlessness / toxicity” is “particularly harmless”.
With `CCN(CC)CCNc1cc([N+](=O)[O-])c(N)c(C)c1C` [4-amino-5,6-dimethyl-3-nitro-N-(β-diethylaminoethyl)aniline], the harmlessness result in the data set “Harmlessness / toxicity” is recorded as “particularly harmless”.
For `Cc1c(NCC(O)CO)cc([N+](=O)[O-])c(N)c1C` (stereo not drawn) [4-amino-5,6-dimethyl-3-nitro-N-β,γ-dihydroxypropylaniline], in “Harmlessness / toxicity”, the harmlessness entry is “particularly harmless”.
In the case of `Cc1c(NCCN)cc([N+](=O)[O-])c(N)c1C` [4-amino-5,6-dimethyl-3-nitro-N-β-aminoethylaniline], the harmlessness entry in “Harmlessness / toxicity” is listed as “particularly harmless”.
For `Cc1c(NCCO)cc([N+](=O)[O-])c(N)c1C` [4-amino-5,6-dimethyl-3-nitro-N-β-hydroxyethylaniline], in the data set “Harmlessness / toxicity”, the harmlessness entry is on record as “particularly harmless”.
On to `Cc1c(N)cc([N+](=O)[O-])c(N)c1C` [5,6-dimethyl-3-nitroparaphenylenediamine], for which the “stability of the nitro colorant in the liquid composition” value in data set [1] was “stable in the liquid composition”. In addition, the harmlessness result in the data set “Harmlessness / toxicity” was “particularly harmless”.
